Assay results taken from patent US9803187B2 (priority 2014, dated 2017).
Where two headings read alike, the source gives them in different places.

Key:
[1] = target: T1, SbnE (Staphylococcus aureus, UniProt Q2G1M9); assay: biochemical
[2] = target: T2, AsbA (Bacillus anthracis, UniProt A0A0F7RJ52); assay: biochemical
[3] = target: AsbB (Bacillus anthracis, UniProt Q81RQ8); assay: biochemical; format: biochemical
[4] = tested on: S. aureus (Newman); assay: microbe, parasite or virus in culture; format: cell-based; conditions: for IC50: Staphylococcus aureus, NEWMAN, 8 h
[5] = tested on: B. anthracis (Sterne 34F2); assay: microbe, parasite or virus in culture; format: cell-based; conditions: for IC50: Bacillus anthracis
[6] = target: T1, SbnE; assay: biochemical; format: biochemical, S. aureus; conditions: for Ki: inhibition constant (Ki) SbnE
[7] = target: T2, AsbA; assay: biochemical; format: biochemical, B. anthracis; conditions: for Ki: inhibition constant (Ki) AsbA
[8] = tested on: MRSA (USA 300); assay: microbe, parasite or virus in culture; format: cell-based, methicillin-resistant Staphylococcus aureus; conditions: Staphylococcus aureus
[9] = tested on: S. typhimurium; assay: microbe, parasite or virus in culture; format: cell-based; conditions: Salmonella enterica
[10] = tested on: E. coli (MC 1061); assay: microbe, parasite or virus in culture; format: cell-based; conditions: Escherichia coli
[11] = tested on: S. flexneri (BS103); assay: microbe, parasite or virus in culture; format: cell-based; conditions: Shigella flexneri

T2 sequence (A0A0F7RJ52 whole entry, looked up): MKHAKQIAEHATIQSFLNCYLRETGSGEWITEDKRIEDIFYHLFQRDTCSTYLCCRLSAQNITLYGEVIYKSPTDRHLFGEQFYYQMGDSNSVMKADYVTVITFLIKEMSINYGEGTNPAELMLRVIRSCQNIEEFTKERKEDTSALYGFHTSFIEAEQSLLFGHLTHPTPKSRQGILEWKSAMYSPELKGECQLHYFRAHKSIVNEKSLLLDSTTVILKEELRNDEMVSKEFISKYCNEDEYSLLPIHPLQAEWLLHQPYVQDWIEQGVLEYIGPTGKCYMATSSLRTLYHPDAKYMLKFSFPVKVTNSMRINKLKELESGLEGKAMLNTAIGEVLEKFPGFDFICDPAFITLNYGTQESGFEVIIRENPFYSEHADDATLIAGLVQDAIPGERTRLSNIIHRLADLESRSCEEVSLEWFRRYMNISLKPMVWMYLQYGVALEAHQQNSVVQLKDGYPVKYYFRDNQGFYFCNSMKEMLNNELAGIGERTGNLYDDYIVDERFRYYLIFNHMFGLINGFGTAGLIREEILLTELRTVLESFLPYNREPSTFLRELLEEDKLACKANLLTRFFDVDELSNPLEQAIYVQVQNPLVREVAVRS
Sequence of AsbB (Q81RQ8 whole entry, looked up): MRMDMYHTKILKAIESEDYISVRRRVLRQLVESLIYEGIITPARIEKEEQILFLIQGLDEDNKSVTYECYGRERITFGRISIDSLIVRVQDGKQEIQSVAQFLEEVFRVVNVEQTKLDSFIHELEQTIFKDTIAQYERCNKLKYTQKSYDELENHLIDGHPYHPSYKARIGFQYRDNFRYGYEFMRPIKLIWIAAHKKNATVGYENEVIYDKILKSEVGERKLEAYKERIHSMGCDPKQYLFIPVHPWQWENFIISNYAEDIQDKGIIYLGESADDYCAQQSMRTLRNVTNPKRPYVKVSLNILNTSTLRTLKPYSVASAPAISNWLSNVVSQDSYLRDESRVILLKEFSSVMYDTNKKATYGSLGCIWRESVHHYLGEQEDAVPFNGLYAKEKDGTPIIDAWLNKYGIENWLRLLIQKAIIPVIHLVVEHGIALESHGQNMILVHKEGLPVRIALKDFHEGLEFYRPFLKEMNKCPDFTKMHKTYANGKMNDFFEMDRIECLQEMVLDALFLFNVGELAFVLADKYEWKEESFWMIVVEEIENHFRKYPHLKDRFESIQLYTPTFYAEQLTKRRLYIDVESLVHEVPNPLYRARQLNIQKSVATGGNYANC
T1 sequence (Q2G1M9 whole entry): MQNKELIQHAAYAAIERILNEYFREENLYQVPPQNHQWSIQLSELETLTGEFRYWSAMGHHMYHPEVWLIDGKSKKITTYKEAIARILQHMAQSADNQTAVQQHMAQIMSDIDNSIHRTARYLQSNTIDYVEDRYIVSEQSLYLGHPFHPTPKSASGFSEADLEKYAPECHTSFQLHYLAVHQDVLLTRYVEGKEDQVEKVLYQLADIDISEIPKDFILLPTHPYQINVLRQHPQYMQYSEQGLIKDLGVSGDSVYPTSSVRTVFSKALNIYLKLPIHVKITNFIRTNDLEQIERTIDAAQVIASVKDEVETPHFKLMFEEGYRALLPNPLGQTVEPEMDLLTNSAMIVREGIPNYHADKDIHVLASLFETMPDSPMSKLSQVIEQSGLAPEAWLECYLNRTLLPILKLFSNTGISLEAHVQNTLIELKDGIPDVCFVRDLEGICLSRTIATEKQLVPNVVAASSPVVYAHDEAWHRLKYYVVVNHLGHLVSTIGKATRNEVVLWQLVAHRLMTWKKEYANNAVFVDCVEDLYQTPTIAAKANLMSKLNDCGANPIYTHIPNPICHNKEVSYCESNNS

Question: With `CC(=O)[C@@H](C)C[C@@H](C)C[C@@H](C)CC[C@H](O)C[C@H](O)[C@H](CC(C)C)[C@H](O)c1cc(O)cc(O)c1` [BmcB, Baulamycin B] as the compound, how does the IC50 [1] read?
Answer: 19 µM

Question: What about the IC50 [2] of the same compound?
Answer: 200 µM

Question: What about the IC50 [3] of the same compound?
Answer: > 1000 µM

Question: And the “inhibition against AsbB (in words)” value [3]?
Answer: negligible

Question: And the “potency against S. aureus (Newman) compared with BmcA (in words)” value [4]?
Answer: significantly less potent

Question: And the “potency against B. anthracis (Sterne 34F2) compared with BmcA (in words)” value [5]?
Answer: significantly less potent

Question: Which results are given for `CCC(=O)[C@@H](C)C[C@@H](C)C[C@@H](C)CC[C@H](O)C[C@H](O)[C@H](CC(C)C)[C@H](O)c1cc(O)cc(O)c1` [BmcA, Baulamycin A]?
Answer: IC50 [1]: 4.8 µM; IC50 [2]: 180 µM; IC50 [3]: > 1000 µM; inhibition against AsbB (in words) [3]: negligible; mechanism of inhibition of SbnE [6]: reversible, competitive; Ki ([6]; ATP): 680 µM; Ki ([6]; citric acid): 50 µM; Ki ([6]; polyamine substrate): 210 µM; mechanism of inhibition of AsbA [7]: reversible, competitive; Ki ([7]; ATP): 230 µM; Ki ([7]; citric acid): 110 µM; Ki ([7]; polyamine substrate): 170 µM; IC50 ([4]; read-out: IDM IC50): 69 µM; IC50 ([4]; read-out: IRM IC50): 86 µM; IC50 ([8]; read-out: IDM IC50): 130 µM; IC50 ([8]; read-out: IRM IC50): 130 µM; IC50 ([5]; read-out: IDM IC50): 110 µM; IC50 ([5]; read-out: IRM IC50): 120 µM; IC50 ([9]; read-out: IC50, iron-depleted conditions): > 1000 µM; IC50 ([9]; read-out: IC50, iron-rich conditions): > 1000 µM; IC50 ([9]; read-out: IDM IC50): > 1000 µM; IC50 ([9]; read-out: IRM IC50): > 1000 µM; IC50 ([10]; read-out: IDM IC50): 4.2 µM; IC50 ([10]; read-out: IRM IC50): 150 µM; IC50 ([11]; read-out: IDM IC50): 20 µM; IC50 ([11]; read-out: IRM IC50): 46 µM
